Where two headings read alike, the source gives them in different places.
Columns and labels:
TsPYK [1] = molecular target: T1, TsPYK (Thermoanaerobacterium saccharolyticum, UniProt I3VV25); experiment: Kapp–PEP versus effector concentration, lactate dehydrogenase coupled assay, linkage fit; assay type: biochemical; conditions: Kix in absence of PEP, 10 mM ADP, 15 mM MgCl2, 30 °C
T1 construct: gene Tsac_1363; full length with extra-C domain; N-terminal 6XHis tag kept (6XHis-MBP-SUMO tag in later expression); expressed in E. coli FF50 / QTF60 (pykA pykF deleted); homotetramer
T1 sequence (I3VV25 1-583): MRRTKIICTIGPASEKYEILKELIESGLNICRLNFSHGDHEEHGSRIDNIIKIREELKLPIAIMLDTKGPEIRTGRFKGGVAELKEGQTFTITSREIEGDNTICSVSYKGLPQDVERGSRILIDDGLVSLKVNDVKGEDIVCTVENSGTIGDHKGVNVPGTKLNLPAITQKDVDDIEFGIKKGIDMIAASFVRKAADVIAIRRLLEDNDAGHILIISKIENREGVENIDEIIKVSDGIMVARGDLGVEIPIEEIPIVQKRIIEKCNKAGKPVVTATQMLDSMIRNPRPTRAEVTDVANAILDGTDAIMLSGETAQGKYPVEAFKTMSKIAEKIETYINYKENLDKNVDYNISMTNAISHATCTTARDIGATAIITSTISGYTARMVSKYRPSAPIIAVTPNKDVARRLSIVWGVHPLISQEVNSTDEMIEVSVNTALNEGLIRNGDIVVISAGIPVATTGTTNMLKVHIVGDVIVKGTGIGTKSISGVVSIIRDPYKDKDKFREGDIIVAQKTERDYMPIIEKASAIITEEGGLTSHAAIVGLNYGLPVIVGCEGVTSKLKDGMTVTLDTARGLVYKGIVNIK
Source text: Kapp–PEP versus effector concentration, lactate dehydrogenase coupled assay, linkage fit on TsPYK

TsPYK [2] = molecular target: T1, TsPYK; experiment: Kapp–PEP versus effector concentration, lactate dehydrogenase coupled assay; assay type: biochemical; conditions: 10 mM ADP, 15 mM MgCl2, 30 °C
E. coli Type A [3] = molecular target: T2, E. coli Type A (Escherichia coli, UniProt P21599); experiment: as above; assay type: biochemical; conditions: allosteric activator; 10 mM ADP, 15 mM MgCl2, 30 °C
T2 construct: gene pykA; full length; no extra-C domain; N-terminal 6XHis-MBP-SUMO tag kept; expressed in E. coli QTF60

C. bescii PYK [4] = molecular target: T3, C. bescii PYK (Caldicellulosiruptor bescii, UniProt A0ABY1S964); experiment: as above; assay type: biochemical; conditions: allosteric activator; 10 mM ADP, 15 mM MgCl2, 30 °C
T3 construct: gene SAMN05216240_1829; full length with extra-C domain; N-terminal 6XHis-MBP-SUMO tag kept; expressed in E. coli QTF60

[5] = molecular target: T4, TsPYK extra-C domain truncated (Thermoanaerobacterium saccharolyticum, UniProt I3VV25); experiment: as above; assay type: biochemical; conditions: allosteric activator; 10 mM ADP, 15 mM MgCl2, 30 °C
T4 construct: gene Tsac_1363; N-terminal 6XHis-MBP-SUMO tag kept; expressed in E. coli QTF60

E. coli Type F = molecular target: T5, E. coli Type F (Escherichia coli, UniProt P0AD61); experiment: lactate dehydrogenase coupled NADH assay, A340, Hill fit; assay type: biochemical; conditions: 10 mM ADP, 15 mM MgCl2, 30 °C; no effector
T5 construct: gene pykF; full length; no extra-C domain; N-terminal 6XHis-MBP-SUMO tag kept; expressed in E. coli QTF60

E. coli Type A [6] = molecular target: T2, E. coli Type A; experiment: as above; assay type: biochemical; conditions: 10 mM ADP, 15 mM MgCl2, 30 °C; no effector
[7] = molecular target: T4, TsPYK extra-C domain truncated; experiment: as above; assay type: biochemical; conditions: 10 mM ADP, 15 mM MgCl2, 30 °C; no effector
C. bescii PYK [8] = molecular target: T3, C. bescii PYK; experiment: as above; assay type: biochemical; conditions: 10 mM ADP, 15 mM MgCl2, 30 °C; no effector
[9] = substrate: C=C(OP(=O)(O)O)C(=O)O; experiment: as above; assay type: biochemical, Thermoanaerobacterium saccharolyticum; conditions: 10 mM ADP, 15 mM MgCl2, 195 mM K+, 80 mM Na+, 50 mM HEPES, 30 °C, no effector, ± sign lost in table text
Source text: lactate dehydrogenase coupled NADH assay, A340, Hill fit on TsPYK

T3 sequence (A0ABY1S964 entry or part of it): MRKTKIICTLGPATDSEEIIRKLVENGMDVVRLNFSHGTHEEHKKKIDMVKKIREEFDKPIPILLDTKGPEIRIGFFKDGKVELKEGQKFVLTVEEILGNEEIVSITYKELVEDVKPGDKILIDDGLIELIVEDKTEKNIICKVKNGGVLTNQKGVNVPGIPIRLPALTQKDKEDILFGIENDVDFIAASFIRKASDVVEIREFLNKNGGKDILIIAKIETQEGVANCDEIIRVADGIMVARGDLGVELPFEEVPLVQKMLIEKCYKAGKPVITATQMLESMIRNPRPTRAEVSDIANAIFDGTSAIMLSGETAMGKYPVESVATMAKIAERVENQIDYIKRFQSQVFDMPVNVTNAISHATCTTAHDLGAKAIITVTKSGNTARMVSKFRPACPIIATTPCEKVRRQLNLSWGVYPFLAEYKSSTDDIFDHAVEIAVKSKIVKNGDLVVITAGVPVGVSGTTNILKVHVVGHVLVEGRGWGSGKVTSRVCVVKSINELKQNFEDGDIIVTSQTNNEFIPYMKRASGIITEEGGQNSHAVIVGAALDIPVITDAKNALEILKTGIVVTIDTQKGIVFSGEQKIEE
T2 sequence (P21599 whole entry): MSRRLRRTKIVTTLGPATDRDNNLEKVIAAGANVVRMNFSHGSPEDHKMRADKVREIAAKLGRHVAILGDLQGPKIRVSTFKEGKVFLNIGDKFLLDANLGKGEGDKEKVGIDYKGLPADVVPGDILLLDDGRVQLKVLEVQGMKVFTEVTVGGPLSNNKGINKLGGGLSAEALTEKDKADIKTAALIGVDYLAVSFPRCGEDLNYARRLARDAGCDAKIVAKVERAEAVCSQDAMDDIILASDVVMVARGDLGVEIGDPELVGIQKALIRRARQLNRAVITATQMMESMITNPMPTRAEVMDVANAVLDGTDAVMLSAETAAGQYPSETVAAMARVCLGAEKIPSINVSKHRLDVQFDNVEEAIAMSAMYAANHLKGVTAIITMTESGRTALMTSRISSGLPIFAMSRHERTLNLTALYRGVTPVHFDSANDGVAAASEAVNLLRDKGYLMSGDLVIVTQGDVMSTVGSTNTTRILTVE
T5 sequence (P0AD61 whole entry): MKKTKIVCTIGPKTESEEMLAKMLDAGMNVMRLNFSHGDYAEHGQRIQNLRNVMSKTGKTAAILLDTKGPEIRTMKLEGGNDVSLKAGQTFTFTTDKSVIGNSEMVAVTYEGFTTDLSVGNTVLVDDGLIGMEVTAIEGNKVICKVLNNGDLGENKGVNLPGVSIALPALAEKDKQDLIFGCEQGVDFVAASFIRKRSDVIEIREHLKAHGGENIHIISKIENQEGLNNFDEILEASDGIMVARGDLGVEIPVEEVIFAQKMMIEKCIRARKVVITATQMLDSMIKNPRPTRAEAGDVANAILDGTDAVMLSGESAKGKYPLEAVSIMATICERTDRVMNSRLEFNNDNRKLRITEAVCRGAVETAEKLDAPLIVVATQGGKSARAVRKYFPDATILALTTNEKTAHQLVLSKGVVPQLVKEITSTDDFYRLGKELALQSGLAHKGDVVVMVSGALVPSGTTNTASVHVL

With `O=P(O)(O)OC[C@H]1OC(O)[C@H](O)[C@@H]1O` (some centres unmarked) [R5P] the Kd (TsPYK [1]; allosteric activator, ± sign lost in table text (printed 1110), read-out: Kix-R5P) was 11000 ± 10000 µM.

In the case of `O=C[C@H](O)COP(=O)(O)O` [glyceraldehyde 3-phosphate], the Kapp-PEP shift (TsPYK [2]; allosteric inhibitor) is reported as “glyceraldehyde 3-phosphate, fructose-6-phosphate, IMP or GMP all caused reduced affinity for PEP”.

With `Nc1ncnc2c1ncn2[C@H]1C[C@H](O)[C@@H](COP(=O)(O)O)O1` [2-deoxyadenonsine-5′MP] the Kapp-PEP shift (TsPYK [2]; allosteric activator) was “generated a response very similar to AMP (slightly reduced binding)”.

Molecule `Nc1nc2c(ncn2[C@@H]2O[C@H](COP(=O)(O)O)[C@@H](O)[C@H]2O)c(=O)[nH]1` [GMP] has a Kd (TsPYK [1]; allosteric inhibitor, ± sign lost in table text (printed 11), read-out: Kix-GMP) of 1000 ± 1000 µM.

For `Nc1ncnc2c1ncn2[C@@H]1O[C@H](COP(=O)(O)O)[C@@H](O)[C@H]1O` [AMP], the Kapp-PEP shift (E. coli Type A [3]) was “the E. coli type A isozyme was activated by both AMP and IMP”, the Kapp-PEP shift (C. bescii PYK [4]) was “the isozyme from C. bescii were inhibited by IMP and activated by AMP” and the Kapp-PEP shift [5] was “Activation by AMP was not influenced by the removal of the extra-C domain”. It also gave a Kd (TsPYK [1]; allosteric activator, ± sign lost in table text, read-out: Kix-AMP) of 90 ± 60 µM.

In the case of `C=C(OP(=O)(O)O)C(=O)O` [PEP], the Kapp-PEP (E. coli Type F) is reported as “The response of three bacterial PYK isozymes to AMP and IMP”, the Kapp-PEP (E. coli Type A [6]) is reported as “The response of three bacterial PYK isozymes to AMP and IMP” and the Kapp-PEP [7] is reported as “A comparison of responses to IMP and AMP for the full length TsPYK”. The Kapp-PEP (C. bescii PYK [8]) was “The response of three bacterial PYK isozymes to AMP and IMP”.

In the case of `O=P(O)(O)OC[C@H]1OC(O)(CO)[C@@H](O)[C@@H]1O` (some centres unmarked) [fructose-6-phosphate], the Kapp-PEP shift (TsPYK [2]; allosteric inhibitor) is reported as “glyceraldehyde 3-phosphate, fructose-6-phosphate, IMP or GMP all caused reduced affinity for PEP”.

B1: TsPYK (Thermoanaerobacterium saccharolyticum JW/SL-YS485) (protein)
chain: MRRTKIICTIGPASEKYEILKELIESGLNICRLNFSHGDHEEHGSRIDNIIKIREELKLPIAIMLDTKGPEIRTGRFKGGVAELKEGQTFTITSREIEGDNTICSVSYKGLPQDVERGSRILIDDGLVSLKVNDVKGEDIVCTVENSGTIGDHKGVNVPGTKLNLPAITQKDVDDIEFGIKKGIDMIAASFVRKAADVIAIRRLLEDNDAGHILIISKIENREGVENIDEIIKVSDGIMVARGDLGVEIPIEEIPIVQKRIIEKCNKAGKPVVTATQMLDSMIRNPRPTRAEVTDVANAILDGTDAIMLSGETAQGKYPVEAFKTMSKIAEKIETYINYKENLDKNVDYNISMTNAISHATCTTARDIGATAIITSTISGYTARMVSKYRPSAPIIAVTPNKDVARRLSIVWGVHPLISQEVNSTDEMIEVSVNTALNEGLIRNGDIVVISAGIPVATTGTTNMLKVHIVGDVIVKGTGIGTKSISGVVSIIRDPYKDKDKFREGDIIVAQKTERDYMPIIEKASAIITEEGGLTSHAAIVGLNYGLPVIVGCEGVTSKLKDGMTVTLDTARGLVYKGIVNIK
notes: full length with extra-C domain; N-terminal 6XHis tag kept (6XHis-MBP-SUMO tag in later expression); expressed in E. coli FF50 / QTF60 (pykA pykF deleted); homotetramer
Work on B1 yielded a K0.5 [9] of 0.63 ± 0.03 mM.

— paper PMC7925390 (Frontiers in Microbiology, 2021)
